The values below come from publication PMC9768319 (iScience, 2022).

Where two headings read alike, the source gives them in different places.

One may read the half-life as the time needed for the level to fall by half in the phase considered.

One series deals with Panc-1 cells. Kind of series: Cell confluence growth inhibition. The class given is cell-based, human.
The next series relates to HPNE and HPSC cells. The class given is cell-based, human. The following applies: for sensitivity of normal, non-transformed cells compared to cancer cells: HPNE and HPSC vs cancer cells.
Series [1] concerns AMP-Activated Protein Kinase (AMPK). Kind of series: AMPK Thr172 phosphorylation immunoblot. The class given is cell-based, murine. The following applies: KPC1242, 0.7 μM MMe or 3 μM pCF3-MMe.
A further series concerns AsPC-1 cells. Briefly: TMRE retention by flow cytometry. The following applies: AsPC-1, serum-starved, 1 h treatment. It is filed as cell-based, human. A general note: Flow cytometry measures light scatter and fluorescence of single cells or particles in a stream.
For series [2], the system named is pancreatic, breast, and colon cancers. The note with it: cited from earlier work.
For series [3], the system named is KPC1242 cells. Kind of series: Luminescent ATP detection assay. It is filed as cell-based, murine. The following applies: KPC1242, 24 h, 0.7 μM MMe or 3 μM pCF3-MMe.
Series [4] has as its system cancer cells (KPC1242, Panc-1, AsPC-1, HCT-116, MDA-MB-231, OVCAR-4, OVCAR-8). Briefly: Cell confluence across the battery of cancer cell lines. It is filed as cell-based. The following applies: escalating concentrations (0.1 µM-10 µM).
Series [5] is described as follows: Tolerability, single intra-peritoneal injection in non-tumor-bearing mice. It is filed as in vivo.
The test system of a further series is HPSC cells. Briefly: TMRE retention by flow cytometry. The class given is cell-based, human. The following applies: serum-starved, 1 h treatment.
Series [6] in a line: Tolerability, daily injection for 5 consecutive days in non-tumor-bearing mice. The following applies: daily for 5 consecutive days, 25 μg/mouse to 1 mg/mouse. It is filed as in vivo.
Series [7] deals with KPC1242 cells. Kind of series: Ki-67 proliferation staining. It is filed as cell-based, murine. The following applies: KPC1242, 24-h treatment, MMe 0.7 μM or pCF3-MMe 3 μM.
For series [8] the following is noted: after administration; cited from earlier work.
Series [9] is classed as in vivo, mice.

`COc1ccc([P+](CCCCCCCCCCNC(=N)CC(=N)N)(c2ccc(OC)cc2)c2ccc(OC)cc2)cc1.[Br-]` [pMeO-MMe, [10-(2-carbamimidoylethanimidamido)decyl]tris(4-methoxyphenyl)phosphonium bromide]: the “confluence of human pancreatic cancer cells” value with Panc-1 cells (Panc-1 (Figure S5), escalating concentrations) is recorded as “concentration-dependent decrease in confluence”. The “efficacy in pancreas cancer cells” value in the series with Panc-1 cells (in contrast to the fluorinated compound) is reported as “lower efficacy”.

As to `N=C(N)NC(=N)NCCCCCCCCCC[P+](c1ccccc1)(c1ccccc1)c1ccccc1.[Br-]` [MMe, 10-[(carbamimidamidomethanimidoyl)amino]decyl-triphenylphosphonium bromide], the “sensitivity of normal, non-transformed cells compared to cancer cells” value with HPNE and HPSC cells was “more than a log-unit less sensitive”. In addition, in [1], the “AMPK activation (Thr172 phosphorylation)” value is on record as “significant increase in AMPK activation”. For the same compound, the “TMRE accumulation within mitochondria” value is on record as “significantly reduced TMRE accumulation” with AsPC-1 cells and “did not affect TMRE accumulation” with HPSC cells. For the same compound, the “fold more efficacious compared to metformin” value in [2] is reported as 100- to 1000 fold. In addition, in the series with KPC1242 cells [3], the “Levels of ATP” value is “significantly reduced”. Moreover, the cell confluency entry in [4] is listed as “decreased in a concentration-dependent manner”. For the same compound, the “mortality after single injection” value in series [5] (single intra-peritoneal injection of 250 μg or 1 mg) is “significant and rapid mortality”. For the same compound, the “tolerability of repeated injection” value in series [6] is listed as “succumbed to 4-fold lower doses”. Besides, the “reduction in Ki-67 levels” value with KPC1242 cells [7] is 20-30%.

`COC1=C(OC)C(=O)C(CCCCCCCCCC[P+](c2ccccc2)(c2ccccc2)c2ccccc2)=C(C)C1=O` [MitoQ]: the half-life in series [8] was roughly 30 min.

Take `N=C(N)NC(=N)NCCCCCCCCCC[P+](c1ccc(C(F)(F)F)cc1)(c1ccc(C(F)(F)F)cc1)c1ccc(C(F)(F)F)cc1.[Br-]` [pCF3-MMe, (10-(3-carbamimidoylguanidino)decyl)tris(4-(trifluoromethyl)phenyl)phosphonium bromide]: the “sensitivity of normal, non-transformed cells compared to cancer cells” value with HPNE and HPSC cells is “more than a log-unit less sensitive”. The “toxic effects toward non-transformed HPNE and HPSC-1 cells” value in the series with HPNE and HPSC cells (compared to parent MMe and mCF3-MMe) was “least toxic effects”. For the same compound, the “reduction in toxicity to normal cells compared to MMe” value in the series on HPNE and HPSC cells is reported as roughly 10 fold. Moreover, the “detection in the blood and liver” value in [9] (2 h after intra-tumoral injection of 1 mg) is recorded as “undetectable”; in [9] (6 h after injection (not shown)), “barely detectable above the signal-to-noise ratio”. Moreover, the “levels within the tumors” value in [9] (24 h after injection, 1 mg/mouse) was “measurable levels”. Further, the “AMPK activation (Thr172 phosphorylation)” value in series [1] was “significant increase in AMPK activation”. Also, the “TMRE accumulation within mitochondria” value was “significantly reduced TMRE accumulation” with AsPC-1 cells and “did not affect TMRE accumulation” in the series with HPSC cells. The “Levels of ATP” value with KPC1242 cells [3] is “significantly reduced”. The cell confluency result in series [4] is “decreased in a concentration-dependent manner”. This compound came in with a mice surviving in series [5] (single intra-peritoneal injection of 1 mg) of 100%. For the same compound, the “tolerability of repeated injection” value in series [6] is reported as “tolerated a 1 mg dose”. Besides, in the series on KPC1242 cells [7], the “reduction in Ki-67 levels” value was 20-30%.

In the case of `N=C(N)NC(=N)NCCCCCCCCCC[P+](c1cccc(C(F)(F)F)c1)(c1cccc(C(F)(F)F)c1)c1cccc(C(F)(F)F)c1.[Br-]` [mCF3-MMe, (10-(3-carbamimidoylguanidino)decyl)tris(3-(trifluoromethyl)phenyl)phosphonium bromide], in the series on HPNE and HPSC cells, the “sensitivity of normal, non-transformed cells compared to cancer cells” value was “more than a log-unit less sensitive” and the “reduction in toxicity to normal cells compared to MMe” value is given as roughly 10 fold. Also, the cell confluency result in [4] is “decreased in a concentration-dependent manner”.
